In the assay the test system is GBS strains. Put plainly: Cell viability by intracellular ATP concentration after penicillin. The settings on record: GBS strain A909 compared to NEM316 and O90R; 100×MIC90 Penicillin G 22 hours. It counts as cell-based, Group B Streptococcus. As to the method:
GBS strains were cultured for 18 hours at 37° C. in THB. These cultures were used to inoculate fresh THB and subsequently allowed to grow to exponential phase (OD600 0.25-0.3) at 37° C. One (1) ml of culture was centrifuged at 5,000 g for 4 min. The cell pellet was re-suspended in ATP free water. Cellular ATP was extracted by using trichloroacetic acid (TCA) (5%) for 2 min. and subsequently neutralized with Tris-EDTA-0.1M NaOAc, pH 7.75 to 10×TCA volume. The initial (in.) cellular ATP concentration ([ATP]) was measured using the ENLITEN (Promega) luciferase based reaction kit. THB cultures then treated 100×MIC90 Penicillin G for 22 hours. The experimental (exp.) cellular ATP was extracted and the concentration was measured as stated above. Based on the calculations ([ATP] exp.)/([ATP] in./O.D. in.), differences in viability were equated with the change in [ATP].
(I) Bacterial Strains and Culture Conditions. […] Cell cultures were allowed to re-grow for an additional 24 h at 37° C. before the OD600 was measured. […] The initial (in.) cellular ATP concentration ([ATP]) was measured using the ENLITEN (Promega) luciferase based reaction kit. […] The experimental (exp.) cellular ATP was extracted and the concentration was measured as stated above. […]

Structures are written as SMILES.

Turning to `CC1(C)S[C@@H]2[C@H](NC(=O)Cc3ccccc3)C(=O)N2[C@H]1C(=O)O` [Penicillin G], the “cellular [ATP] content (FIG. 3)” value was “significant lesser [ATP] content”.
